# Data: patent US20220177587A1, “METHODS AND USES OF VARIANT CD80 FUSION PROTEINS AND RELATED CONSTRUCTS” (Alpine Immune Sciences, Inc., priority 2018, published 2022)
# Tests used:
# [1] = target: huCTLA4 (Homo sapiens, UniProt P16410); assay: Antagonism of CD80/CTLA-4 binding on CHO cells expressing CTLA-4; design: Full-length mammalian surface expression constructs for each of human CTLA-4, PD-L1, and CD28; details: 25 nM fluorochrome-conjugated wild-type CD80-Fc; FIG. 21
# Protocol: After washing, cells were incubated with 25 nM fluorochrome-conjugated wild-type CD80-Fc. Bound fluorescent competitor protein was detected and measured by flow cytometry.
# The multivalent variant CD80 IgSF domain fusion proteins were assessed to test for blocking of the PD-L1/PD-1 and CTLA-4/CD80 interaction performed substantially as described in Example 15. CHO/OKT3/PD-L1 and CHO/CTLA-4 cells were counted and plated at 100,000 cells/well and then incubated with fluorescently conjugated PD-1-Fc and CD80-Fc. Exemplary multivalent variant CD80 IgSF domain fusion proteins were incubated with the cells for 30 minutes. […] Cells were washed and incubated with 100 nM fluorescently conjugated PD-1-Fc and CD80-Fc competitor for 30 minutes. Cells were then washed and samples were acquired on a flow cytometer and MFIs of the fluorescently labeled molecules were determined.
# [2] = Monkey PK model; type: in vivo, cynomolgus monkey; details: monkey PK model estimate
# Text: A PK model was designed as a two compartment model with intercompartmental distribution (Q) between the first compartment (Central Compartment, V1) and the second compartment (Peripheral Compartment, V2). To capture intraperitoneal (IP) or subcutaneous (SC) injection routes, a third compartment (Depot Compartment) was included with a first-order rate constant (Ka) linking the third compartment uni-directionally to the first compartment. The model also included a constant F to account for loss in the amount of drug available to diffuse from the third compartment (Depot Compartment) to the first compartment (Central Compartment, V1) due to IP or SC injection. The total amount of available drug in the third compartment (Depot Compartment) is described as F×Dose. For intravenous injections (IV), the third compartment (Depot Compartment) was omitted.
# For monkeys, linear clearance from the first compartment (Central Compartment, V1) was assumed.
# [3] = system: huPD-L1-expressing MC38 tumors; assay: huPD-L1 MC38 tumor model, IP or IT delivery; type: in vivo, mouse
# Protocol: The MC38 cell line was transduced with human PD-L1 (huPD-L1) Subconfluent cells (˜80% confluent) were harvested on the day of implantation (study day 0), washed twice and brought to a final concentration of 15×10^6 cells/mL in DPBS. Female C57BL/6NJ mice (Jackson Labs, USA) were implanted subcutaneously with approximately 1.5×10^6 cells (0.1 mL) in the right mid-flank region.
# On day 7, mice were randomized into six groups, with each group having a similar mean tumor volume (46.6 mm^3).
# Tumor volume was measured as described in Example 21 to assess anti-tumor activity. Median tumor growth curves among individual treated mice over time were plotted.
# On day 11 post-tumor cell implant and prior to dosing of test articles, five mice from each of Group 1-4 and Group 6 were sacrificed, and the tumors were harvested, weighed and processed for ex vivo tumor analysis. The MC38 cells at time of implant and tumors harvested from a subset of mice on day 11 by enzymatic digestion were evaluated for expression of huPD-L1 or human IgG (to detect Fc of cell-bound test molecules) by flow cytometry. The percent positive and median fluorescent intensity (MFI) of huPD-L1 and huIgG were quantified on the CD45-negative subset of tumor cells.
# Tumors at day 11 were also evaluated for CD8+ T cells and for antigen-specific CD8+ T cells within the CD3+ cell population. p15E is an MHC class I restricted T cell antigen expressed in the MC38 tumor cell lines derived from C57BL/6 mice. A mouse MHC class I p15E tetramer labeled with PE (MBL International Corp.) was used to detect the p15E-MHC class I restricted T cell receptor.
# [4] = system: PBMC obtained from CMV seropositive donor; assay: Cytomegalovirus (CMV) antigen-specific T cell functional assay; type: cell-based, human
# Protocol: Peripheral blood mononuclear cells (PBMC) obtained from CMV seropositive donor were thawed and CMV lysate added at 1 μg/mL to 250,000/well PBMC. […] In addition, the anti-PD-1 antibody alone was also tested. An Fc only molecule was also tested as control. Supernatant was collected 48 hours after incubation to assay IL-2 by ELISA.
# The multivalent variant CD80 IgSF domain fusion proteins were assessed to test for IL-2 production in the CMV assay substantially as described in Example 22. Exemplary multivalent variant CD80 IgSF domain fusion proteins generated as described above were tested at various concentrations from 100000 pM to 46 pM
# [5] = system: huPD-L1/MC38 cells; assay: huPD-L1 MC38 tumor model, combination with oxaliplatin; type: in vivo, mouse
# Protocol: To test the anti-tumor activity of the exemplary variant, it was evaluated alone or in combination with the platinum-based chemotherapeutic agent, oxaliplatin, in mice bearing human PD-L1-expressing MC38 tumors, which is a syngeneic mouse colon carcinoma solid tumor model.
# The huPD-L1 MC38 cell line was generated by transducing parental MC38 cells with huPD-L1 using viral transduction. Eight-week old female C57/BL6NJ mice (The Jackson Laboratories, Sacramento, Calif.) were implanted subcutaneously with 0.5×10^6 huPD-L1/MC38 cells. For injections, 0.1 mL of cells (0.5×10^6 cells) were injected subcutaneously (SC) in the right mid-flank region.
# On day 1, mice were randomized into four groups of 10 mice each, with all mice in each group having about equal mean tumor volumes (˜108 mm^3). Tumors were measured with electronic calipers two-dimensionally twice weekly, beginning on day 7 post-tumor cell implant (referred to as “day 1”). Tumor volume was calculated as length×(width×2)×0.5, with the length being the longer of the two measurements.
# As shown, 30% of the mice in the monotherapy group were tumor free by the end of the study.
# [6] = system: MC38 hPD-L1 tumor cells; assay: Flow cytometry of tumors and draining lymph nodes of treated mice; type: in vivo, mouse; details: three days following the 2nd dose; vs Fc control or anti-PD-L1
# Text: Tissues were processed to single cell suspensions (tumors were enzymatically digested as a part of the processing, whereas draining LN were not), and subjected to multi-color flow cytometric analysis of CD8+ T cells on the CD45+ cell subset (immune cells in either the LN or tumor), as well as % hIgG+ staining on the CD45− cell subset (tumor cells) to detect molecules (CD80-IgV-Fc or anti-PD-L1) bound to the tumor cells.
# [7] = system: primary human pan T cells; assay: Cytokine production following PD-L1-dependent costimulation; type: cell-based; details: mitomycin-c treated K562/OKT3/PDL1 aAPC; FIG. 6
# [8] = in combination with oxaliplatin
# Chain of huCTLA4 (P16410 36-223): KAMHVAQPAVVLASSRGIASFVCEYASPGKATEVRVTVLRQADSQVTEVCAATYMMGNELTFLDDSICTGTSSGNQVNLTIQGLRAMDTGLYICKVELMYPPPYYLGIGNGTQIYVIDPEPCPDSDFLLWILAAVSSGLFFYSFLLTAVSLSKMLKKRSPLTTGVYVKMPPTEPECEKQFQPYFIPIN
substance,measurement,setting,value
"H18Y/A26E/E35D/M47L/V68M/A71G/D90G: variant CD80 IgV-Fc (inert), IgV SEQ ID NO:491",antagonism of binding of CD80 to CTLA-4,[1],antagonized the binding of CD80 to CTLA-4
same,CL,[2],1.31 mL/h/kg
same,F,[2],66.4%
same,Ka,[2],0.728 day⁻¹
same,Q,[2],4.37 mL/h/kg
same,V1,[2],0.0509 L/kg
same,V2,[2],0.158 L/kg
same,percent of p15E-specific CD8+ T cells in tumors,"[3]; 500 or 1500 μg IP or 100 μg IT, day 11",significantly greater percent of p15E-specific CD8+ T cells as compared to Fc control-treated mice
same,anti-tumor growth activity,"[3]; IT injection 100 μg on days 8, 11 and 14",substantial anti-tumor growth activity
same,anti-tumor activity (tumor volume),"[3]; single IP injection 100, 500, 1500 μg",dose-dependent increase in anti-tumor activity compared to Fc control treatment
same,IL-2 production,"[4]; alone, 48 hours, FIG. 23",showed augmentation of IL-2 production compared to the Fc only control
same,IL-2 production,[4]; in combination with 50 nM anti-PD-1 antibody (nivolumab),greater increase in IL-2 production compared to levels of IL-2 production in the presence of either molecule alone
same,tumor free mice,[5]; [8],90%
same,tumor growth over time,[5]; [8],significantly greater reductions in tumor growth over time were observed than with either of the agents alone
same,mean TGI,"[5]; in combination with oxaliplatin, day 25",~100%
same,median tumor volume,"[5]; in combination with oxaliplatin, eleven days after start of dosing",dropped to zero
same,antitumor activity,[5]; monotherapy,had potent antitumor activity
same,tumor free mice by the end of the study,[5]; monotherapy,30%
same,percentages of CD8+ T cells in TIL and LN,[6],significantly greater
same,IL-2 secretion in culture supernatants,[7],resulted in IL-2 secretion in culture supernatants
